Results published in patent US9980980B2, “Compounds, compositions and methods for protecting brain health in neurodegenerative disorders” (Amazentis SA, priority 2009, dated 2018).

Tests used:
Aβ(25-35) = target: T1, Aβ(25-35) (Homo sapiens, UniProt P05067); experiment: Screening assay for inhibition of Aβ(25-35) aggregation (Thioflavin-T fluorescence); type: biochemical; details: molecule at purity above 90%; ThT fluorescence, 25° C., 0-120 minutes; read-out: IC50 for inhibiting aggregation of Aβ25-35
T1 construct: Monomeric Aβ(25-35) purchased from Bachem Pharma; purchased Bachem Pharma
Experimental: Monomeric Aβ(25-35) purchased from Bachem Pharma, was dissolved in distilled sterile water at 4° C., then sonitcated for about 1 minute. The peptide stock solution was then aliquoted and stored at −20° C. All steps were carried out at 4° C. to prevent Aβ(25-35) polymerization.
Fractions of polyphenols were all standardized to 10 μg/mL, before being assessed and stored at −20° C. Measurement of inhibition was performed by following the kinetic of Aβ(25-35) polymerization in a reaction mixture containing 70 μL phosphate buffer, 10 μL Thioflavin-T (100 μM stock solution), 10 μL MeOH (10 mM final concentration) pH 7.2 and 10 μL of Aβ(25-35) (100 μM final concentration) adapting known in the art procedures. LeVine, H., 3rd (1993). “Thioflavine T interaction with synthetic Alzheimer's disease beta-amyloid peptides: detection of amyloid aggregation in solution.” Protein Sci. 2(3): 404-10. When Aβ(25-35) was added to the buffer solution, the solution was sonicated for an additional minute.
To study the inhibitory activity of the fractions, the extracts were diluted to the final concentration in MeOH and 10 μL was added to the mixture at 4° C. Fluorescence spectroscopy was recorded with the excitation at 450 nm and emission at 490 nm. The polymerization kinetics was monitored at 25° C. between 0 and 120 minutes. The IC50 was calculated by using a least-square fitting technique to match the experimental data with a sigmoidal curve. The IC50 was the effective concentration dose of the compound inhibiting the formation of Aβ fibrils to 50% of the control value.

PC12 cells = experiment: Inhibition of Aβ-oligomer induced neuronal cell death in PC12 cells (MTT); type: cell-based, Rat; details: pre-aggregated Aβ (25-35) 10 μM, 24 h; MTT cell viability
Experimental: The fractions that were able to inhibits oligomer formation were also tested for their ability to inhibit Aβ-oligomer induced neuronal cell death using […], a well known and accepted model of neuronal cell culture.
Beta Amyloid peptide (Aβ) 25-35 trifluoroacetate salt (ref H-1192, lot 2000718) was purchased from Bachem (Bubebdorf, Switzerland). Thiazolyl Blue Tetrazolium Bromide (MTT, ref. M2128) was purchased from Sigma-Aldrich (Saint-Quentin Fallvier, France). Albumin Bovine Fraction V (BSA, ref 160069) was purchased from MPBio (Irvine, USA).
Cells: Rat Pheochromocytoma cells (PC12) were maintained in DMEM (4.5 g/L glucose) supplemented with 10% Horse Serum (HS), 5% Fetal Bovine Serum (FCS) and 100 U/mL penicillin and 100 μg/mL Streptomycin at 37° C. under 5% CO2.
Preparation of Aβ (25-35): It has been reported that Aβ oligomers are more toxic to neurons than monomers. […]
Determination of Hydro-Alcoholic Pomegranate Extracts Ability to Protect PC12 Cells Against Aβ Insult: The ability of Pomegranate extracts to protect PC12 cells from Aβ (25-35) oligomer induced toxicity was determined by measuring reduction of MTT to MTT formazan, which reflects cell viability. […] The level of MTT reduction and thus cell viability was determined by a colorimetric assay measuring the optical density at 595 nm using a microplate reader (BioTek EL808).

Molecule	IC50 (Aβ(25-35)) [µM]	protection of PC12 neuronal cells from the toxicity of Aβ (25-35) oligomers (PC12 cells)
O=C1O[C@H]2[C@@H]3OC(=O)c4cc(O)c(O)c(O)c4-c4c(O)c(O)c5oc(=O)c6c(c(O)c(O)c7oc(=O)c4c5c76)-c4c(cc(O)c(O)c4O)C(=O)OC[C@H]3OC(O)[C@@H]2OC(=O)c2cc(O)c(O)c(O)c2-c2c1cc(O)c(O)c2O (mixture of isomers) [Punicalagin]	6	responsible for the observed activity
O=C1OC[C@H]2OC(O)[C@H](O)[C@@H](O)[C@@H]2OC(=O)c2cc(O)c(O)c(O)c2-c2c(O)c(O)c3oc(=O)c4c(c(O)c(O)c5oc(=O)c2c3c54)-c2c1cc(O)c(O)c2O (mixture of isomers) [Punicalin]	10	–
O=C(O[C@@H]1O[C@@H]2COC(=O)c3cc(O)c(O)c(O)c3-c3c(cc(O)c(O)c3O)C(=O)O[C@H]([C@H]1O)[C@@H]2O)c1cc(O)c(O)c(O)c1 [Corilagin]	65	–
O=C1OC[C@H]2OC(O)[C@@H]3OC(=O)c4cc(O)c(O)c(O)c4-c4c(cc(O)c(O)c4O)C(=O)O[C@H]3[C@@H]2OC(=O)c2cc(O)c(O)c(O)c2-c2c1cc(O)c(O)c2O (stereo partly drawn) [Pedunculagin]	11	–
Tellimagrandin	6.8	–
